Columns and labels:
C2GnT = target: T1, C2GnT (Homo sapiens, UniProt Q02742); test: C2GnT GlcNAc-transferase activity assay with acceptor substrates; type: biochemical; conditions: partially purified media of infected High Five cells, background subtracted; for Substrate specificity: C2GnT activity, 2 mM: acceptor substrate 2 mM; for Substrate specificity: C2GnT activity, 10 mM: acceptor substrate 10 mM
T1 construct: Plasmids pAcGP67-C2/4GnT-sol and pAcGP67-C2GnT-sol were co-transfected with; gp67 secretion signal of vector pAcGP67 (own knowledge of the vector); made in house; host or cells: Sf9 cells (baculovirus, culture supernatant)
T1 sequence (Q02742 33-428 limits assumed): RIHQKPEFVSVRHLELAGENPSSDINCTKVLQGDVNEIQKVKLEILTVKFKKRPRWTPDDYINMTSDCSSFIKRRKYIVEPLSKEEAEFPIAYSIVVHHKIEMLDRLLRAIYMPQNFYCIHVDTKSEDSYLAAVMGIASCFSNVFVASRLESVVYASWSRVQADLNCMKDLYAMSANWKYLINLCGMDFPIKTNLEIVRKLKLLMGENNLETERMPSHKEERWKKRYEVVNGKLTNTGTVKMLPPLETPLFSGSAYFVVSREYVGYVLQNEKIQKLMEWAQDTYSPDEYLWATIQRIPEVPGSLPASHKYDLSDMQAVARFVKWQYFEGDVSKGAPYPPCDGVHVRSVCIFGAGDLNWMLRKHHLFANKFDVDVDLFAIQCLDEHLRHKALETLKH
Experimental: (§1) Controls included the pAcGP67-GalNAc-T3-sol (15). The kinetic properties were determined with partially purified enzymes expressed in High Five™ cells. Partial purification was performed by consecutive chromatography on Amberlite IRA-95, DEAE-Sephacryl and CM-Sepharose essentially as described (16).
(§2) An expression construct designed to encode amino acid residues 31-438 of C2/4GnT was prepared by PCR using P1 DNA, and the primer pair TSHC55 (5′-[…]-3′) (SEQ ID NO:8) and TSHC45 (SEQ ID NO:5) (FIG. 2). The PCR product was cloned into the EcoRI site of pAcGP67A (PharMingen), and the insert was fully sequenced. Plasmids pAcGP67-C2/4GnT-sol and pAcGP67-C2GnT-sol were co-transfected with Baculo-Gold™ DNA (PharMingen) as described previously (14). Recombinant Baculo-virus were obtained after two successive amplifications in Sf9 cells grown in serum-containing medium, and titers of virus were estimated by titration in 24-well plates with monitoring of enzyme activities. Controls included the pAcGP67-GalNAc-T3-sol (15).
(§3) Standard assays were performed using culture supernatant from infected cells in 50 μl reaction mixtures containing 100 mM MES […], 10 mM EDTA, 10 mM 2-Acetamido-2-deoxy-D-glucono-1,5-lacton, 180 μM UDP-[^14C]-GlcNAc (6,000 cpm/nmol) (Amersham Pharmacia Biotech), and the indicated concentrations of acceptor substrates (Sigma and Toronto Research Laboratories Ltd., see Table I for structures). Semi-purified C2/4GnT was assayed in 50 μl reaction mixtures containing 100 mM MES (pH 7), 5 mM EDTA, 90 μM UDP-[^14C]-GlcNAc (3,050 cpm/nmol) (Amersham Pharmacia Biotech), and the indicated concentrations of acceptor substrates. Reaction products were quantified by chromatography on Dowex AGI-X8.

C2/4GnT = target: T2, C2/4GnT (Homo sapiens, UniProt O95395); test: C2/4GnT GlcNAc-transferase activity assay with acceptor/donor substrates; type: biochemical; conditions: for Substrate specificity: C2/4GnT activity, 2 mM: acceptor substrate 2 mM; for Substrate specificity: C2/4GnT activity, 2 mM / Substrate specificity: C2/4GnT activity, 10 mM: partially purified media of infected High Five cells, background subtracted; for Substrate specificity: C2/4GnT activity, 10 mM: acceptor substrate 10 mM; for C2/4GnT activity with acceptor substrate (in words): as acceptor substrate; for C2/4GnT activity with donor substrate (in words): as donor substrate, data not shown; for Substrate inhibition of C2/4GnT enzyme activity: high acceptor concentrations up to 20 mM
T2 construct: An expression construct designed to encode amino acid residues 31-438 of C2/4GnT was prepared by PCR using P1 DNA; gp67 secretion signal of vector pAcGP67A (own knowledge of the vector); made in house; host or cells: Sf9 cells (culture supernatant, standard assays); High Five cells (partially purified enzyme, kinetics)
T2 sequence (O95395 31-438): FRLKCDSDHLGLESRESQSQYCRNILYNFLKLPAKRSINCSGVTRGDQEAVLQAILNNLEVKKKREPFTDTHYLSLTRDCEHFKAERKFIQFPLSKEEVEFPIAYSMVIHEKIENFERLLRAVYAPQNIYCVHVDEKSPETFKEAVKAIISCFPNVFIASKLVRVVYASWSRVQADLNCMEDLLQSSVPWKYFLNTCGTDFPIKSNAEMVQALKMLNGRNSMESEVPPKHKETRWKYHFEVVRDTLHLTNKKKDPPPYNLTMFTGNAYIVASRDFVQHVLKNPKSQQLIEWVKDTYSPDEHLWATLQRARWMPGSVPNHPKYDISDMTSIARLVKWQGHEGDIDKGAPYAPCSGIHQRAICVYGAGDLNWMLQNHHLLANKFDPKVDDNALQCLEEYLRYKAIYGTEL
Experimental: as §2, with “sequenced.” for “sequenced. Plasmids”, “was” for “and pAcGP67-C2GnT-sol were”, “activities.” for “activities. Controls included the pAcGP67-GalNAc-T3-sol (15).”
as §1, §2, §3

Compound	Substrate specificity: C2GnT activity, 2 mM (C2GnT) [nmol/h/mg]	Substrate specificity: C2GnT activity, 10 mM (C2GnT) [nmol/h/mg]	Substrate specificity: C2/4GnT activity, 2 mM (C2/4GnT) [nmol/h/mg]	Substrate specificity: C2/4GnT activity, 10 mM (C2/4GnT) [nmol/h/mg]	C2/4GnT activity with acceptor substrate (in words) (C2/4GnT)	C2/4GnT activity with donor substrate (in words) (C2/4GnT)	Substrate inhibition of C2/4GnT enzyme activity (C2/4GnT)
CC(=O)N[C@H]1[C@H](O[C@H]2[C@@H](O)[C@@H](CO)O[C@@H](O[C@H]3[C@H](O)[C@@H](O)C(O)O[C@@H]3CO)[C@@H]2O)O[C@H](CO)[C@@H](O[C@@H]2O[C@H](CO)[C@H](O)[C@H](O)[C@H]2O)[C@@H]1O (mixture of isomers) [lacto-N-neo-tetraose]	<0.1	<0.1	<0.1	<0.1	no activity		
CC(=O)N[C@H]1C(O)O[C@H](CO)[C@H](O)[C@@H]1O (stereo partly drawn) [D-GalNAc]	<0.1	<0.1	<0.1	<0.1			
CC(=O)N[C@H]1[C@@H](OP(=O)(O)OP(=O)(O)OC[C@H]2O[C@@H](n3ccc(=O)[nH]c3=O)[C@H](O)[C@@H]2O)O[C@H](CO)[C@H](O)[C@@H]1O [UDP-GalNAc]						no activity	
CC(=O)N[C@H]1[C@@H](OP(=O)(O)OP(=O)(O)OC[C@H]2O[C@@H](n3ccc(=O)[nH]c3=O)[C@H](O)[C@@H]2O)O[C@H](CO)[C@@H](O)[C@@H]1O [UDP-GlcNAc, UDP-N-acetylglucosamine]						strict donor substrate specificity	
CC(=O)N[C@H]1[C@@H](Oc2ccc([N+](=O)[O-])cc2)O[C@H](CO)[C@H](O)[C@@H]1O [α-D-GalNAc-1-p-Nph]	<0.1	<0.1	<0.1	<0.1	no activity		
CC(=O)N[C@H]1[C@@H](Oc2ccc([N+](=O)[O-])cc2)O[C@H](CO)[C@H](O)[C@@H]1O[C@@H]1O[C@H](CO)[C@H](O)[C@H](O)[C@H]1O [β-D-Gal-(1-3)-α-D-GalNAc-1-p-Nph]	16.2	23.6	16.1	21.8			No substrate inhibition
CC(=O)N[C@@H]1[C@@H](O[C@@H]2O[C@H](CO)[C@H](O)[C@H](O)[C@H]2O)[C@@H](O)[C@@H](CO)O[C@@H]1O [β-D-Gal-(1-3)-α-D-GalNAc]	9.6	19.0	2.8	7.3			
CC(=O)NC1C(OC2C(O)C(CO)OC(Oc3ccc([N+](=O)[O-])cc3)C2NC(C)=O)OC(CO)C(O)C1O [β-D-GlcNAc-(1-3)-α-D-GalNAc-1-p-Nph]	<0.1	<0.1	5.2	7.4			No substrate inhibition
CO[C@@H]1O[C@H](CO)[C@H](O)[C@H](O[C@@H]2O[C@H](CO)[C@@H](O)[C@H](O)[C@H]2NC(C)=O)[C@H]1O [β-D-GlcNAc-(1-3)-β-D-Gal-1-Me]	<0.1	<0.1	<0.1	<0.1	no activity		

Reference: patent US7381554B2, “UDP-N-acetylglucosamine: galactose-β1,3-N-acetylgalactosamine-α-R/N-acetylglucosamine-β1,3-N-acetylgalactosamine-α-R (GlcNAc to GalNAc) β1,6-N-acetylglucosaminyltransferase, C2/4GnT” (Glycozym ApS, priority 1998, dated 2008)
